{"source": "paper PMC12080252", "about": "“Daphnia magna as an Alternative Model for (Simultaneous) Bioaccumulation and Chronic Toxicity Assessment—Controlled Exposure Study Indicates High Hazard of Heterocyclic PAHs” (Environmental Science & Technology, 2025)", "key": {"Daphnia magna": {"tested_on": "Daphnia magna", "assay": "Chronic reproduction toxicity test (OECD 211) with passive dosing", "format": "in vivo", "set-up": "% inhibition, avr. of vessels: concentration or dose not given beside the values", "details": "for EC10: 21-day reproduction inhibition; for #offspring per mother, Total: single vessels (replicates); for #dead offspring per mother, Total: single vessels; for wet weight of parent daphnids, change relative to control: end of 21-d exposure", "protocol": "(§1) Chronic toxicity tests with D. magna were performed according to the OECD guideline 211^2 using the passive dosing method. Two days before the tests, the exposure solution was predosed by shaking 10 PDMS disks loaded with the test substance in 1 L of medium for 48 h. Each test vessel (250 mL) was first flushed with the dosed solution to equilibrate the vessel walls, then filled with 100 mL of test solution, one PDMS disk, and one juvenile D. magna (<24 h old). The tests were conducted in loosely closed bottles to allow for adequate gas exchange and limit evaporation. The exposure medium was changed three times per week, and the animals were fed D. subspicatus daily (0.2 mg C/Daphnia/day). The number of offspring per adult and behavioral or physiological effects (e.g., size, movement, unhatched eggs) were recorded daily (except weekends). Dissolved oxygen, pH and temperature were also measured each week.\n(§2) Tests were performed under static conditions (20 °C, 16:8 h light/dark cycle, 1 klux). Each compound was tested in 10 replicates for controls and limit tests (a single high concentration exposure to screen for significant toxic effects) and with 6 or 10 replicates for concentration–response tests. Reuse of silicone disks was included in some experiments (Table S3). Reproductive inhibition was assessed by counting offspring over 21 days. The number of offspring per mother in treatment groups was compared to controls, and the percent inhibition per replicate was used to generate concentration–response curves. A minimum of five concentrations per compound were tested to determine EC10, EC20, and EC50 values. For each test, three sets of polymers were rotated between loading, dosing, and exposure stages (Figure S2). Initial (before animal and food addition) and final (after 2–3 days of exposure, just before the medium change) water concentrations (CW) were monitored, with the latter collected after centrifugation to remove biomass (e.g., algae, carapaces, or feces).\n(§3) All data are presented as average ± standard deviation. Student’s t test was used to analyze significance (p-value >0.05 considered insignificant). Concentration–response curve parameters (effective concentrations and confidence limits) and plots were generated using GraphPad Prism software (V6.01, GraphPad Software, La Jolla, CA, USA). The exposure concentrations were log10 transformed before fitting. Then a four parameters logistic model with variable slope was used to obtain EC10, EC20 and EC50 (see section S5 in SI file for details). Effective chemical activities (EA50) for chronic toxicity were calculated as follows: [drawing 1] 1 […]\n(§4) S5. Concentration-response curve (CRC) fitting procedure\n(§5) GraphPad Prism version 9.5.1 was used to fit CRC and obtain EC10, EC20, EC50 values and their confidence intervals. The exposure concentrations were log10 transformed before fitting. Then a four parameters logistic model with variable slope was used that describes the response as a function of following four parameters: minimum response (the Bottom), maximum response (the Top), the concentration required to cause a response half-way between the minimum and maximum (the EC50) and the slope of the curve […]\n(§6) concentration. The Top was constrained to 100, the Bottom was constrained to 0, the HillSlope was not […]\n(§7) !\"# %& = !\"# %&* − , × !\"# 3 * 4\n(§8) (, + ,((!\"# %&'(<=)×-.!!/!\"01)\n(§9) Figure S7 Concentration-response curves of four NSO-PAHs based on reproductive inhibition during 21-day chronic toxicity tests with D. magna.\n(§10) (1 picture or pasted object on this page, not shown here)"}, "[1]": {"assay": "Chronic reproduction toxicity test (OECD 211) with passive dosing", "format": "in vivo, Daphnia magna", "set-up": "% inhibition, avr. of vessels: concentration or dose not given beside the values", "details": "Daphnia magna, in vivo, other: waterborne exposure by passive dosing from PDMS disks, 21-day test", "protocol": "as §1, §2, §3, §4, §5, §6, §7, §8, §9, §10"}, "[2]": {"details": "21-day reproduction test, sheet Test 4-BNF, last treatment block, single replicate vessels 1-6"}, "[3]": {"details": "BNF avr. medium concentration 0.77 µg/L, 21 days"}, "[4]": {"details": "BNF avr. medium concentration 2.99 µg/L, 21 days"}}, "note": "“And” between values parts separate entries of the source, which are not always exact repeats. Identical values can stand only once.", "data": [{"compound": "c1ccc2c(c1)ccc1oc3ccccc3c12", "note": "[BNF, benzo[b]naphtho[1,2-d]furan]", "values": [{"measurement": "EC10", "setting": "Daphnia magna; 97.5-2.5% confidence interval in brackets", "result": "0.91 (0.35-1.67) μg L^-1"}, {"measurement": "EC10", "setting": "Daphnia magna; confidence interval in brackets", "result": "4.17 (1.60-7.63) nmol L^-1"}, {"measurement": "% inhibition, avr. of vessels", "setting": "Daphnia magna; 21-day reproduction test, sheet Test 4-BNF, last treatment block, average of 6 vessels", "result": 35.3, "unit": "%"}, {"measurement": "% inhibition (of reproduction, per vessel)", "setting": "Daphnia magna; [2]", "result": "17.3% and 34.4% and 37.2% and 35.8% and 67.2% and 20.1%"}, {"measurement": "Total #dead offspring per mother (per vessel)", "setting": "Daphnia magna; [2]", "result": "1 and 0"}, {"measurement": "growth of parent D. magna (wet weight)", "setting": "Daphnia magna; 21-day test, p-value <0.05", "result": "significantly inhibited D. magna growth"}, {"measurement": "%offspring mortality", "setting": "Daphnia magna; 21 days", "result": 0.73, "unit": "%"}, {"measurement": "#average live offspring", "setting": "Daphnia magna; 21 days, mean of 6 vessels, sheet Test 4-BNF, last treatment block", "result": 45}, {"measurement": "LOEC (lowest observed effect concentration, reproduction inhibition)", "setting": "Daphnia magna; 21 days, p-value <0.05 vs controls", "result": 3.0, "unit": "μg L^–1"}, {"measurement": "#total live offspring", "setting": "Daphnia magna; 21 days, sum of 6 vessels, sheet Test 4-BNF, last treatment block", "result": 272}, {"measurement": "#offspring per mother, Total", "setting": "Daphnia magna; BNF avr. medium concentration 0.35 µg/L (methanol for dosing 0.063 g/L), 21 days", "result": "77 and 63 and 72 and 59 and 68"}, {"measurement": "%offspring mortality", "setting": "Daphnia magna; BNF avr. medium concentration 0.35 µg/L, 21 days", "result": 0.25, "unit": "%"}, {"measurement": "% inhibition, avr.", "setting": "Daphnia magna; BNF avr. medium concentration 0.35 µg/L, 21 days, average of vessels", "result": 4.4, "unit": "%"}, {"measurement": "#average live offspring", "setting": "Daphnia magna; BNF avr. medium concentration 0.35 µg/L, 21 days, per mother", "result": 67}, {"measurement": "#total live offspring", "setting": "Daphnia magna; BNF avr. medium concentration 0.35 µg/L, 21 days, sum of all vessels", "result": 402}, {"measurement": "#offspring per mother, Total", "setting": "Daphnia magna; BNF avr. medium concentration 0.77 µg/L (methanol for dosing 0.125 g/L), 21 days", "result": "72 and 65 and 81 and 60 and 59"}, {"measurement": "%offspring mortality", "setting": "Daphnia magna; [3]", "result": 0.00, "unit": "%"}, {"measurement": "% inhibition, avr.", "setting": "Daphnia magna; BNF avr. medium concentration 0.77 µg/L, 21 days, average of vessels", "result": 2.8, "unit": "%"}, {"measurement": "#average live offspring", "setting": "Daphnia magna; BNF avr. medium concentration 0.77 µg/L, 21 days, per mother", "result": 68}, {"measurement": "#dead offspring per mother, Total", "setting": "Daphnia magna; [3]", "result": 0}, {"measurement": "#total live offspring", "setting": "Daphnia magna; BNF avr. medium concentration 0.77 µg/L, 21 days, sum of all vessels", "result": 409}, {"measurement": "#offspring per mother, Total", "setting": "Daphnia magna; BNF avr. medium concentration 1.55 µg/L (methanol for dosing 0.25 g/L), 21 days", "result": "68 and 44 and 67 and 57 and 40"}, {"measurement": "%offspring mortality", "setting": "Daphnia magna; BNF avr. medium concentration 1.55 µg/L, 21 days", "result": 0.36, "unit": "%"}, {"measurement": "% inhibition, avr.", "setting": "Daphnia magna; BNF avr. medium concentration 1.55 µg/L, 21 days, average of surviving vessels", "result": 21.3, "unit": "%"}, {"measurement": "#average live offspring", "setting": "Daphnia magna; BNF avr. medium concentration 1.55 µg/L, 21 days, per mother", "result": 55}, {"measurement": "#total live offspring", "setting": "Daphnia magna; BNF avr. medium concentration 1.55 µg/L, 21 days, sum of surviving vessels", "result": 276}, {"measurement": "state of the mother animal (parental mortality)", "setting": "Daphnia magna; BNF avr. medium concentration 1.55 µg/L, vessel 5, day 16", "result": "dead"}, {"measurement": "#offspring per mother, Total", "setting": "Daphnia magna; BNF avr. medium concentration 2.99 µg/L (methanol for dosing 0.5 g/L), 21 days", "result": "46 and 49 and 38 and 47 and 60 and 51"}, {"measurement": "%offspring mortality", "setting": "Daphnia magna; [4]", "result": 0.00, "unit": "%"}, {"measurement": "% inhibition, avr.", "setting": "Daphnia magna; BNF avr. medium concentration 2.99 µg/L, 21 days, average of vessels", "result": 30.8, "unit": "%"}, {"measurement": "#average live offspring", "setting": "Daphnia magna; BNF avr. medium concentration 2.99 µg/L, 21 days, per mother", "result": 49}, {"measurement": "#dead offspring per mother, Total", "setting": "Daphnia magna; [4]", "result": 0}, {"measurement": "#total live offspring", "setting": "Daphnia magna; BNF avr. medium concentration 2.99 µg/L, 21 days, sum of all vessels", "result": 291}, {"measurement": "EA50 (effective chemical activity)", "setting": "Daphnia magna; EC50/subcooled liquid solubility, eq 1", "result": 0.002, "unit": "unitless"}, {"measurement": "Classification according to REACH Annex XIII", "setting": "Daphnia magna; chronic EC10 < 10 μg L^–1", "result": "toxic to aquatic life"}, {"measurement": "CTLBB (critical target lipid body burden)", "setting": "Daphnia magna; derived from chronic EC10 using eq 3", "result": 1.7, "unit": "μmol g^-1 octanol"}, {"measurement": "wet weight of parent daphnids, change relative to control", "setting": "Daphnia magna; 0.3 µg/L (Fig. S9)", "result": -11, "unit": "%"}, {"measurement": "wet weight of parent daphnids, change relative to control", "setting": "Daphnia magna; 0.8 µg/L (Fig. S9)", "result": -23, "unit": "%"}, {"measurement": "wet weight of parent daphnids, change relative to control", "setting": "Daphnia magna; 1.5 µg/L (Fig. S9)", "result": -12, "unit": "%"}, {"measurement": "wet weight of parent daphnids, change relative to control", "setting": "Daphnia magna; 3.0 µg/L (Fig. S9)", "result": -33, "unit": "%"}, {"measurement": "wet weight of parent daphnids, change relative to control", "setting": "Daphnia magna; 4.4 µg/L (Fig. S9)", "result": -38, "unit": "%"}, {"measurement": "Parent animal mortality", "setting": "Daphnia magna; vessel 5, day 16, sheet Test 4-BNF, last treatment block", "result": "dead (reported as exposure related)"}, {"measurement": "mortality at 21 days, 0.3 µg/L", "setting": "[1]; 0.3 µg/L (Fig. S8), read-out: % offspring mortality of total offspring", "result": 0.3, "unit": "%"}, {"measurement": "mortality at 21 days, 0.8 µg/L", "setting": "[1]; 0.8 µg/L (Fig. S8), read-out: % offspring mortality of total offspring", "result": 0, "unit": "%"}, {"measurement": "mortality at 21 days, 1.5 µg/L", "setting": "[1]; 1.5 µg/L (Fig. S8), read-out: % offspring mortality of total offspring", "result": 0.4, "unit": "%"}, {"measurement": "mortality at 21 days, 3 µg/L", "setting": "[1]; 3.0 µg/L (Fig. S8), read-out: % offspring mortality of total offspring", "result": 0, "unit": "%"}, {"measurement": "mortality at 21 days, 4.4 µg/L", "setting": "[1]; 4.4 µg/L (Fig. S8), read-out: % offspring mortality of total offspring", "result": 0.7, "unit": "%"}, {"measurement": "mortality at 21 days", "setting": "[1]; at higher exposure levels, read-out: offspring mortality", "result": "< 1", "unit": "%"}]}]}
